From patent EP4737452A1, “NOVEL PYRIMIDINE DERIVATIVES” (Aigen Sciences Inc., priority 2023, dated 2025) come the findings set out here.

The target of one assay is USP1 enzyme (Homo sapiens, UniProt O94782). As to the kind of experiment: Biochemical analysis of USP1 enzyme activity (ubiquitin-rhodamine 110 deubiquitination, fluorescence). The note with it: ubiquitin-rhodamine 110 substrate, 10 minutes pre-incubation, 30 minutes reaction at room temperature; read-out: Enzyme activity IC50 grade. On the procedure: In this experimental example, the inhibitory effect of the compounds according to the present invention and the positive control compound on USP1 deubiquitinating activity was tested using a biochemical enzymatic assay. Ubiquitin-rhodamine 110 was used as a substrate for measuring deubiquitinating activity. This substrate compound is a substance in which rhodamine 110 is linked to the glycine residue at the C-terminus of ubiquitin by an amide bond. When this amide bond is cleaved by the deubiquitinating activity, a fluorescent signal is counted.
USP1 enzyme, sequence (O94782 whole entry): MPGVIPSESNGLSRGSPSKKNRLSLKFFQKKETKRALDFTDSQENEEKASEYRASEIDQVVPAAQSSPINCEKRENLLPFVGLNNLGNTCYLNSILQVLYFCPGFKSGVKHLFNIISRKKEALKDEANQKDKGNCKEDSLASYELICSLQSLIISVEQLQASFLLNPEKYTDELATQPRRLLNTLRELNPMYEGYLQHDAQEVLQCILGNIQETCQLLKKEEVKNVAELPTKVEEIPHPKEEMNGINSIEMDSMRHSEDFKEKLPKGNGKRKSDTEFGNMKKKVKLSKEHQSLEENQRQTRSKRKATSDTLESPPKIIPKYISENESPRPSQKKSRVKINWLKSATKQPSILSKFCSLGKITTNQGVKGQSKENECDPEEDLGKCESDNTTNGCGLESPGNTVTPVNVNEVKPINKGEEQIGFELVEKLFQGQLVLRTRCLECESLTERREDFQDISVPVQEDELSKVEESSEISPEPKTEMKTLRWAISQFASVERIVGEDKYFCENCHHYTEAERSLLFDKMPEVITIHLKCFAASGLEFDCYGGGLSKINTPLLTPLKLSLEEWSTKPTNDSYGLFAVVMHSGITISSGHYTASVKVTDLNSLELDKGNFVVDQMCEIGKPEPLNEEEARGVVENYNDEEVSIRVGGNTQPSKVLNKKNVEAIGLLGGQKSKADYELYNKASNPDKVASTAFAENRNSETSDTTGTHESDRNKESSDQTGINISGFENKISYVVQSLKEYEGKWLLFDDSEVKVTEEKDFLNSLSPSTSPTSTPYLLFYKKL
USP1 enzyme, sequence (Q8TAF3 whole entry partner): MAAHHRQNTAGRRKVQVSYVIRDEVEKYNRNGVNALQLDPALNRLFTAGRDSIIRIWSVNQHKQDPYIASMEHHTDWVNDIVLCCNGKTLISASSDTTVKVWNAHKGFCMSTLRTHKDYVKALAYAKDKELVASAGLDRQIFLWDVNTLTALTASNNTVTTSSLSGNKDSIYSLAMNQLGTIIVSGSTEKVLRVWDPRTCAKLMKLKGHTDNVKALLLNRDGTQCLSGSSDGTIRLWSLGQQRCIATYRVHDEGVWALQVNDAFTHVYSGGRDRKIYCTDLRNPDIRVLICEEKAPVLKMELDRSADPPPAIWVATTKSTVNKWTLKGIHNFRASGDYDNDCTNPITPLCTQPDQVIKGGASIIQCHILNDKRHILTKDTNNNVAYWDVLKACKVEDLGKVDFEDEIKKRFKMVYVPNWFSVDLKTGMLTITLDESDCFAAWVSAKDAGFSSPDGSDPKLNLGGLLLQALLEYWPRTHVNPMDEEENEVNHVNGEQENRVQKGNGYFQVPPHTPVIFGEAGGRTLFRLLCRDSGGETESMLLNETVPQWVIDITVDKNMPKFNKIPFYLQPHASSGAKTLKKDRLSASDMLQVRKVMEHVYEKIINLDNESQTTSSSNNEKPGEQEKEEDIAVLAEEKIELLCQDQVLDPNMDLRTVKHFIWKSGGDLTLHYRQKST
Subsequently, analytical buffer solution (50 mM hydroxyethylpiperazineethanesulfonic acid (HEPES) containing USP1 enzyme, 100 mM NaCl, 2 mM tris(2-carboxyethyl)phosphine (TCEP), and 100 µg/mL bovine serum albumin (BSA)) were added to each well of the plate and incubated at room temperature for 10 minutes. Subsequently, analytical y buffer solution containing ubiquitin-rhodamine 110 was added to each well and reacted at room temperature for 30 minutes.

The subject of the next assay is MDA-MB-436. The experiment in a line: Cell survival analysis (CellTiter-Glo, 10 days culture). The assay is classed as cell-based. The settings on record: Homo sapiens, read-out: Cell growth IC50 grade. The procedure: In this experimental example, the cell growth inhibitory effect of compounds according to the present invention and positive control compounds in tumor cell lines was examined.
MDA-MB-436 (ATCC, #HTB-130) cell line was cultured in cell culture medium (Leibovitz's L-15 (GIBCO catalog no. 11415064) + 10 µg/mL insulin (Yeasen catalog no. 40112ES25) + 16 µg/mL glutathione (GIBCO catalog no. 25030-081) + 10% fetal bovine serum (FBS) (Excell Bio catalog no. FSP500)). 3,000 MDA-MB-436 cells were plated per well in a 96-well plate and cultured for 1 day at 37°C in 5% CO2. […] The cells were then cultured in a cell incubator for 10 days, and the cell culture medium containing the compound was replaced on the 5th day of culture. Cell survival rate was analyzed for luminescence using the Promega CellTiter-Glo Luminescent Cell Viability Assay Kit (Promega catalog number G7573), and the luminescence was measured using a PerkinElmer EnVision instrument. The percentage of cell growth inhibition rate was calculated from the measured relative luminescence unit (RLU) as follows. Inhibition rate = 1−((RLU compound−RLU blank)/(RLU control−RLU blank)) × 100 [formula]
(In ATP-based viability assays light output follows the ATP content of the culture.)

Setting [1] is: 240 h, MDA-MB-436 cell line, cultured for 10 days, CellTiter-Glo.

pIC50: −log10 of the molar value. Read-outs that look alike come from different tables or passages of the source.

On to `COc1ncnc(C2CC2)c1-c1ncc(P(C)(C)=O)c(NCc2ccc(-c3nc(C(F)(F)F)cn3C)cc2)n1` [Example 2, (4'-cyclopropyl-6'-methoxy-4-((4-(1-methyl-4-(trifluoromethyl)-1H-imidazol-2-yl)benzyl)amino)-[2,5'-bipyrimidine]-5-yl)dimethylphosphine oxide], for which the pIC50 (as a rule, −log10 of the IC50, conventionally taken in molar units) on USP1 enzyme was 7.00 to 7.30; with MDA-MB-436 (setting [1]), 6.30 to 7.00.

For `Cc1cnn(C(C)C)c1-c1ncc(P(C)(C)=O)c(NCc2ccc(-c3nc(C(F)(F)F)cn3C)cc2)n1` [Example 3, (2-(1-isopropyl-4-methyl-1H-pyrazole-5-yl)-4-((4-(1-methyl-4-(trifluoromethyl)-1H-imidazol-2-yl)benzyl)amino)pyrimidin-5-yl)dimethylphosphine oxide], the pIC50 at USP1 enzyme is below 7.00; in the assay with MDA-MB-436 (setting [1]) it was below 6.30.

With `CC(C)c1ncccc1-c1ncc(P(C)(C)=O)c(NCc2ccc(-c3nc(C(F)(F)F)cn3C)cc2)n1` [Example 4, (2-(2-isopropylpyridine-3-yl)-4-((4-(1-methyl-4-(trifluoromethyl)-1H-imidazol-2-yl)benzyl)amino)pyrimidin-5-yl)dimethylphosphine oxide], the results for the pIC50 at USP1 enzyme and in the assay on MDA-MB-436 (setting [1]) were below 7.00 and 6.30 to 7.00, respectively.

Turning to `[2H]C([2H])([2H])Oc1ncnc(C2CC2)c1-c1ncc(P(C)(C)=O)c(NCc2ccc(-c3nc(C(F)(F)F)cn3C)cc2)n1` [Example 5, (4'-cyclopropyl-6'-(methoxy-d3)-4-((4-(1-methyl-4-(trifluoromethyl)-1H-imidazol-2-yl)benzyl)amino)-[2,5'-bipyrimidine]-5-yl)dimethylphosphine oxide], the pIC50 on USP1 enzyme is 7.00 to 7.30; in the assay with MDA-MB-436 (setting [1]), 6.30 to 7.00.

For the molecule `Cn1cc(C(F)(F)F)nc1-c1ccc(CNc2nc(-c3cccnc3OC(F)F)ncc2P(C)(C)=O)cc1` [Example 6, (2-(2-(difluoromethoxy)pyridin-3-yl)-4-((4-(1-methyl-4-(trifluoromethyl)-1H-imidazol-2-yl)benzyl)amino)pyrimidin-5-yl)dimethylphosphine oxide], the figures for the pIC50 on USP1 enzyme and with MDA-MB-436 (setting [1]) were below 7.00 and 6.30 to 7.00, respectively.

As to `COc1ncnc(C2CC2)c1-c1ncc(P(C)(C)=O)c(NCc2ccc(-c3nc(C(F)(F)F)cn3C)c(F)c2)n1` [Example 7, (4'-cyclopropyl-4-((3-fluoro-4-(1-methyl-4-(trifluoromethyl)-1H-imidazol-2-yl)benzyl)amino)-6'-methoxy-[2,5'-bipyrimidine]-5-yl)dimethylphosphine oxide], the pIC50 at USP1 enzyme was 7.00 to 7.30; in the assay with MDA-MB-436 (setting [1]) it was above 7.00.

As for `COc1ncnc(C2CC2)c1-c1ncc(P(C)(C)=O)c(NCc2ccc(-c3nc(C(F)(F)F)cn3C3CC3)cc2)n1` [Example 8, (4'-cyclopropyl-4-((4-(1-cyclopropyl-4-(trifluoromethyl)-1H-imidazol-2-yl)benzyl)amino)-6'-methoxy-[2,5'-bipyrimidine]-5-yl)dimethylphosphine oxide], the figures for the pIC50 at USP1 enzyme and with MDA-MB-436 (setting [1]) were above 7.30 and above 7.00, respectively.

Consider `COc1ncnc(C2CC2)c1-c1ncc(P(C)(C)=O)c(NCc2ccc(-n3nc(C(F)(F)F)cc3C)cc2)n1` [Example 9, (4'-cyclopropyl-6'-methoxy-4-((4-(5-methyl-3-(trifluoromethyl)-1H-pyrazole-1-yl)benzyl)amino)-[2,5'-bipyrimidine]-5-yl)dimethylphosphine oxide], for which the figures for the negative-log IC50 (pIC50) on USP1 enzyme and in the assay with MDA-MB-436 (setting [1]) were above 7.30 and above 7.00, respectively.

Consider `COc1ncnc(C2CC2)c1-c1ncc(P(C)(C)=O)c(NCC23CCC(c4nc(C(F)(F)F)cn4C)(CC2)CC3)n1` [Example 10, (4'-cyclopropyl-6'-methoxy-4-(((4-(1-methyl-4-(trifluoromethyl)-1H-imidazol-2-yl)bicyclo[2.2.2]octan-1-yl)methyl)amino)-[2,5'-bipyrimidine]-5-yl)dimethylphosphine oxide], for which the pIC50 was 7.00 to 7.30 on USP1 enzyme and 6.30 to 7.00 with MDA-MB-436 (setting [1]).

`COc1ncnc(C2CC2)c1-c1ncc(P(C)(C)=O)c(NCC23C4C5C2C2C3C4C52c2nc(C(F)(F)F)cn2C)n1` [Example 11, (4'-cyclopropyl-6'-methoxy-4-((((1s,2R,3s,4r,5S,6r,7R,8S)-4-(1-methyl-4-(trifluoromethyl)-1H-imidazol-2-yl)cuban-1-yl)methyl)amino)-[2,5'-bipyrimidine]-5-yl)dimethylphosphine oxide]: the pIC50 at USP1 enzyme is above 7.30; with MDA-MB-436 (MDA-MB-436, 240 h) it was above 7.00.

As to `COc1ncnc(C2CC2)c1-c1ncc(P(C)(C)=O)c(NCc2ccc(-c3nc(C(F)(F)F)cn3C(C)C)cc2)n1` [Example 12, (4'-cyclopropyl-4-((4-(1-isopropyl-4-(trifluoromethyl)-1H-imidazol-2-yl)benzyl)amino)-6'-methoxy-[2,5'-bipyrimidine]-5-yl)dimethylphosphine oxide], the pIC50 at USP1 enzyme is 7.00 to 7.30; in the assay with MDA-MB-436 (setting [1]), 6.30 to 7.00.

Regarding `COc1ncnc(C2CC2)c1-c1ncc(P(C)(C)=O)c(NCc2ccc(-c3nc(C(F)(F)F)cn3C(C)C)c(F)c2)n1` [Example 13, (4'-cyclopropyl-4-((3-fluoro-4-(1-isopropyl-4-(trifluoromethyl)-1H-imidazol-2-yl)benzyl)amino)-6'-methoxy-[2,5'-bipyrimidine]-5-yl)dimethylphosphine oxide], the figures for the negative logarithm of the IC50 (pIC50) at USP1 enzyme and in the assay on MDA-MB-436 (setting [1]) were above 7.30 and above 7.00, respectively.

Regarding `COc1ncnc(C2CC2)c1-c1ncc(P(C)(C)=O)c(NCc2ccc(-n3nc(C(F)(F)F)cc3C)c(F)c2)n1` [Example 14, (4'-cyclopropyl-4-((3-fluoro-4-(5-methyl-3-(trifluoromethyl)-1H-pyrazole-1-yl)benzyl)amino)-6'-methoxy-[2,5'-bipyrimidine]-5-yl)dimethylphosphine oxide], the pIC50 on USP1 enzyme was above 7.30; in the assay with MDA-MB-436 (setting [1]), above 7.00.

As for `COc1ncnc(C2CC2)c1-c1ncc(P(C)(C)=O)c(NCc2ccc(-n3nc(C(F)(F)F)cc3C(C)C)cc2)n1` [Example 15, (4'-cyclopropyl-4-((4-(5-isopropyl-3-(trifluoromethyl)-1H-pyrazole-1-yl)benzyl)amino)-6'-methoxy-[2,5'-bipyrimidine]-5-yl)dimethylphosphine oxide], the negative-log IC50 (pIC50) on USP1 enzyme is above 7.30; in the assay on MDA-MB-436 (setting [1]) it was above 7.00.

Take `COc1ncnc(C2CC2)c1-c1ncc(P(C)(C)=O)c(NCc2ccc(-n3nc(C(F)(F)F)cc3C(C)C)c(F)c2)n1` [Example 16, (4'-cyclopropyl-4-((3-fluoro-4-(5-isopropyl-3-(trifluoromethyl)-1H-pyrazol-1-yl)benzyl)amino)-6'-methoxy-[2,5'-bipyrimidine]-5-yl)dimethylphosphine oxide]: the results for the negative-log IC50 (pIC50) on USP1 enzyme and with MDA-MB-436 (setting [1]) were above 7.30 and above 7.00, respectively.

For the molecule `COc1ncnc(C2CC2)c1-c1ncc(P(C)(C)=O)c(NCc2ccc(-n3nc(C(F)(F)F)cc3C3CC3)cc2)n1` [Example 17, (4'-cyclopropyl-4-((4-(5-cyclopropyl-3-(trifluoromethyl)-1H-pyrazole-1-yl)benzyl)amino)-6'-methoxy-[2,5'-bipyrimidine]-5-yl)dimethylphosphine oxide], the pIC50 was above 7.30 at USP1 enzyme and above 7.00 with MDA-MB-436 (setting [1]).

In the case of `COc1ncnc(C2CC2)c1-c1ncc(P(C)(C)=O)c(NCc2ccc(-n3nc(C(F)(F)F)cc3C3CC3)c(F)c2)n1` [Example 18, (4'-cyclopropyl-4-((4-(5-cyclopropyl-3-(trifluoromethyl)-1H-pyrazole-1-yl)-3-fluorobenzyl)amino)-6'-methoxy[2,5'-bipyrimidine]-5-yl)dimethylphosphine oxide], the values for the negative-log IC50 (pIC50) at USP1 enzyme and in the assay with MDA-MB-436 (setting [1]) were above 7.30 and above 7.00, respectively.

As to `Cc1cnc(-c2ccccc2C(C)C)nc1NCc1ccc(-n2ccnn2)cc1` [ML323, N-(4-(1H-1,2,3-triazol-1-yl)benzyl)-5-methyl-2-(2-isopropylphenyl)pyrimidin-4-amine, reference compound], in the assay with MDA-MB-436 (setting [1]), the pIC50 is below 6.30.
